Measured values reported in US9149038B2, “4-amino-6-(heterocyclic)picolinates and 6-amino-2-(heterocyclic)pyrimidine-4-carboxylates and their use as herbicides” (Dow AgroSciences LLC, priority 2013, dated 2015).
Like-named read-outs stand apart in the source and are kept apart here.

Test system: Wheat and Barley and weed species
Assay: Post-Emergent Test III: postemergent herbicidal activity in wheat and barley, visual rating after 21 d and probit GR20/GR50/GR80/GR90 (Tables 9-13)
Type: in vivo
Details: for GR20 HORVS / GR20 TRZAS: growth reduction of 20%; for pest or weed control at 35 g/ha / pest or weed control at 70 g/ha / pest or weed control at 140 g/ha / pest or weed control at 17.5 g/ha: post-emergence, 504 h
Source text: Herbicidal evaluations were made visually on a scale of 0 to 100 where 0 represents no activity and 100 represents complete plant death.
Seeds of the desired test plant species were planted in Sun Gro MetroMix® 306 planting mixture, which typically has a pH of 6.0 to 6.8 and an organic matter content of about 30 percent, in plastic pots with a surface area of 103.2 square centimeters (cm^2). When required to ensure good germination and healthy plants, a fungicide treatment and/or other chemical or physical treatment was applied. The plants were grown for 7-36 days (d) in a greenhouse with an approximate 14 hour (h) photoperiod which was maintained at about 18° C. during the day and 17° C. during the night. Nutrients and water were added on a regular basis and supplemental lighting was provided with overhead metal halide 1000-Watt lamps as necessary. The plants were employed for testing when they reached the second or third true leaf stage.
A weighed amount, determined by the highest rate to be tested, of each test compound was placed in a 25 mL glass vial and was dissolved in 4 mL of a 97:3 v/v mixture of acetone and DMSO to obtain concentrated stock solutions. […] The concentrated stock solutions obtained were diluted with 20 mL of an aqueous mixture containing acetone, water, isopropyl alcohol, DMSO, Agri-Dex crop oil concentrate, and X-77 surfactant in a 48:39:10:1.5:1.5:0.02 v/v ratio to obtain spray solutions containing the highest application rates. Additional application rates were obtained by serial dilution of 12 mL of the high rate solution into a solution containing 2 mL of a 97:3 v/v mixture of acetone and DMSO and 10 mL of an aqueous mixture containing acetone, water, isopropyl alcohol, DMSO, Agri-Dex crop oil concentrate, and X-77 surfactant in a 48:39:10:1.5:1.5:0.02 v/v ratio to obtain ½×, ¼×, ⅛× and 1/16× rates of the high rate. Compound requirements are based upon a 12 mL application volume at a rate of 187 liters per hectare (L/ha). Formulated compounds were applied to the plant material with an overhead Mandel track sprayer equipped with 8002E nozzles calibrated to deliver 187 L/ha over an application area of 0.503 square meters at a spray height of 18 inches (43 cm) above the average plant canopy height. Control plants were sprayed in the same manner with the solvent blank.
The treated plants and control plants were placed in a greenhouse as described above and watered by subirrigation to prevent wash-off of the test compounds. After 21 d, the condition of the test plants as compared with that of the untreated plants was determined visually and scored on a scale of 0 to 100 percent where 0 corresponds to no injury and 100 corresponds to complete kill and are presented as indicated in Table 4.
By applying the well-accepted probit analysis as described by J. Berkson in Journal of the American Statistical Society, 48, 565 (1953) and by D. Finney in “Probit Analysis” Cambridge University Press (1952), herbicidal injury of a specific compound at various rates can be used to calculate GR20, GR50, GR80 and GR90 values, which are defined as growth reduction factors that correspond to the effective dose of herbicide required to provide plant growth reduction (GR) of 20 percent, 50 percent, 80 percent and 90 percent, respectively. Probit analysis was applied to data collected from multiple dose rates of individual compounds utilizing the procedures explained in the following examples. The data for some of the dose rates and analysis of all of the dose rates are captured in the following tables.

[1] = ALOMY black-grass (Alopecurus myosuroides), growth reduction of 50%, probit analysis
[2] = ALOMY black-grass (Alopecurus myosuroides), growth reduction of 80%, probit analysis
[3] = ALOMY black-grass (Alopecurus myosuroides), growth reduction of 90%, probit analysis
[4] = APESV bentgrass (Apera spica-venti), growth reduction of 50%, probit analysis
[5] = APESV bentgrass (Apera spica-venti), growth reduction of 80%, probit analysis
[6] = APESV bentgrass (Apera spica-venti), growth reduction of 90%, probit analysis
[7] = HORVS barley, spring (crop), probit analysis
[8] = Hordeum vulgare, HORVS barley, spring (crop), 35 g ai/ha, read-out: Visual Growth Reduction (%) 21 Days After Application HORVS
[9] = Hordeum vulgare, HORVS barley, spring (crop), 70 g ai/ha, read-out: Visual Growth Reduction (%) 21 Days After Application HORVS
[10] = LOLSS ryegrass, growth reduction of 50%, probit analysis
[11] = LOLSS ryegrass, growth reduction of 80%, probit analysis
[12] = LOLSS ryegrass, growth reduction of 90%, probit analysis
[13] = SETVI green foxtail (Setaria viridis), growth reduction of 50%, probit analysis
[14] = SETVI green foxtail (Setaria viridis), growth reduction of 80%, probit analysis
[15] = SETVI green foxtail (Setaria viridis), growth reduction of 90%, probit analysis
[16] = TRZAS wheat, spring (crop), probit analysis
[17] = Triticum aestivum, TRZAS wheat, spring (crop), 35 g ai/ha, read-out: Visual Growth Reduction (%) 21 Days After Application TRZAS
[18] = Triticum aestivum, TRZAS wheat, spring (crop), 70 g ai/ha, read-out: Visual Growth Reduction (%) 21 Days After Application TRZAS
[19] = ALOMY black-grass (Alopecurus myosuroides), 35 g ai/ha, read-out: Visual Growth Reduction (%) 21 Days After Application ALOMY
[20] = ALOMY black-grass (Alopecurus myosuroides), 70 g ai/ha, read-out: Visual Growth Reduction (%) 21 Days After Application ALOMY
[21] = APESV bentgrass (Apera spica-venti), 35 g ai/ha, read-out: Visual Growth Reduction (%) 21 Days After Application APESV
[22] = APESV bentgrass (Apera spica-venti), 70 g ai/ha, read-out: Visual Growth Reduction (%) 21 Days After Application APESV
[23] = LOLSS ryegrass, 35 g ai/ha, read-out: Visual Growth Reduction (%) 21 Days After Application LOLSS
[24] = LOLSS ryegrass, 70 g ai/ha, read-out: Visual Growth Reduction (%) 21 Days After Application LOLSS
[25] = SETVI green foxtail (Setaria viridis), 35 g ai/ha, read-out: Visual Growth Reduction (%) 21 Days After Application SETVI
[26] = SETVI green foxtail (Setaria viridis), 70 g ai/ha, read-out: Visual Growth Reduction (%) 21 Days After Application SETVI

## COC(=O)c1nc(-c2ccc3c(c2F)OC(F)(F)O3)c(F)c(N)c1Cl [Compound 10]
[1]
  GR50 ALOMY: 52 g ai/ha
[2]
  GR80 ALOMY: 109 g ai/ha
[3]
  GR90 ALOMY: >140 g ai/ha
[4]
  GR50 APESV: 65 g ai/ha
[5]
  GR80 APESV: 106 g ai/ha
[6]
  GR90 APESV: 138 g ai/ha
[7]
  GR20 HORVS: 11 g ai/ha
[8]
  pest or weed control at 35 g/ha: 60 to 74%
[9]
  pest or weed control at 70 g/ha: 75 to 84%
Hordeum vulgare, HORVS barley, spring (crop), 140 g ai/ha, read-out: Visual Growth Reduction (%) 21 Days After Application HORVS
  pest or weed control at 140 g/ha: 85 to 94%
KCHSC kochia (Kochia scoparia), 35 g ai/ha
  Visual Growth Reduction (%) 21 Days After Application KCHSC: G (0-29)
KCHSC kochia (Kochia scoparia), 70 g ai/ha
  Visual Growth Reduction (%) 21 Days After Application KCHSC: D (60-74)
KCHSC kochia (Kochia scoparia), 140 g ai/ha
  Visual Growth Reduction (%) 21 Days After Application KCHSC: C (75-84)
KCHSC kochia (Kochia scoparia), growth reduction of 50%, probit analysis
  GR50 KCHSC: 78 g ai/ha
KCHSC kochia (Kochia scoparia), growth reduction of 80%, probit analysis
  GR80 KCHSC: 117 g ai/ha
KCHSC kochia (Kochia scoparia), growth reduction of 90%, probit analysis
  GR90 KCHSC: >140 g ai/ha
[10]
  GR50 LOLSS: 93 g ai/ha
[11]
  GR80 LOLSS: >140 g ai/ha
[12]
  GR90 LOLSS: >140 g ai/ha
[13]
  GR50 SETVI: 36 g ai/ha
[14]
  GR80 SETVI: 63 g ai/ha
[15]
  GR90 SETVI: 85 g ai/ha
[16]
  GR20 TRZAS: 4 g ai/ha
[17]
  pest or weed control at 35 g/ha: 60 to 74%
[18]
  pest or weed control at 70 g/ha: 85 to 94%
Triticum aestivum, TRZAS wheat, spring (crop), 140 g ai/ha, read-out: Visual Growth Reduction (%) 21 Days After Application TRZAS
  pest or weed control at 140 g/ha: 85 to 94%
[19]
  pest or weed control at 35 g/ha: 30 to 44%
[20]
  pest or weed control at 70 g/ha: 45 to 59%
ALOMY black-grass (Alopecurus myosuroides), 140 g ai/ha, read-out: Visual Growth Reduction (%) 21 Days After Application ALOMY
  pest or weed control at 140 g/ha: 85 to 94%
[21]
  pest or weed control at 35 g/ha: 0 to 29%
[22]
  pest or weed control at 70 g/ha: 45 to 59%
APESV bentgrass (Apera spica-venti), 140 g ai/ha, read-out: Visual Growth Reduction (%) 21 Days After Application APESV
  pest or weed control at 140 g/ha: 85 to 94%
[23]
  pest or weed control at 35 g/ha: 0 to 29%
[24]
  pest or weed control at 70 g/ha: 30 to 44%
LOLSS ryegrass, 140 g ai/ha, read-out: Visual Growth Reduction (%) 21 Days After Application LOLSS
  pest or weed control at 140 g/ha: 60 to 74%
[25]
  pest or weed control at 35 g/ha: 60 to 74%
[26]
  pest or weed control at 70 g/ha: 75 to 84%
SETVI green foxtail (Setaria viridis), 140 g ai/ha, read-out: Visual Growth Reduction (%) 21 Days After Application SETVI
  pest or weed control at 140 g/ha: 95 to 100%

## Nc1c(F)c(-c2ccc3c(c2F)OC(F)(F)O3)nc(C(=O)O)c1Cl [Compound 11]
[1]
  GR50 ALOMY: 41 g ai/ha
[2]
  GR80 ALOMY: >70 g ai/ha
[3]
  GR90 ALOMY: >70 g ai/ha
[4]
  GR50 APESV: 25 g ai/ha
[5]
  GR80 APESV: 52 g ai/ha
[6]
  GR90 APESV: >70 g ai/ha
[7]
  GR20 HORVS: 3 g ai/ha
Hordeum vulgare, HORVS barley, spring (crop), 17.5 g ai/ha, read-out: Visual Growth Reduction (%) 21 Days After Application HORVS
  pest or weed control at 17.5 g/ha: 60 to 74%
[8]
  pest or weed control at 35 g/ha: 60 to 74%
[9]
  pest or weed control at 70 g/ha: 85 to 94%
[10]
  GR50 LOLSS: 31 g ai/ha
[11]
  GR80 LOLSS: 62 g ai/ha
[12]
  GR90 LOLSS: >70 g ai/ha
MATCH wild chamomile (Matricaria recutita L.), 17.5 g ai/ha
  Visual Growth Reduction (%) 21 Days After Application MATCH: G (0-29)
MATCH wild chamomile (Matricaria recutita L.), 35 g ai/ha
  Visual Growth Reduction (%) 21 Days After Application MATCH: F (30-44)
MATCH wild chamomile (Matricaria recutita L.), 70 g ai/ha
  Visual Growth Reduction (%) 21 Days After Application MATCH: E (45-59)
MATCH wild chamomile (Matricaria recutita L.), growth reduction of 50%, probit analysis
  GR50 MATCH: 65 g ai/ha
MATCH wild chamomile (Matricaria recutita L.), growth reduction of 80%, probit analysis
  GR80 MATCH: >70 g ai/ha
MATCH wild chamomile (Matricaria recutita L.), growth reduction of 90%, probit analysis
  GR90 MATCH: >70 g ai/ha
[13]
  GR50 SETVI: 18 g ai/ha
[14]
  GR80 SETVI: 37 g ai/ha
[15]
  GR90 SETVI: 53 g ai/ha
[16]
  GR20 TRZAS: 0.12 g ai/ha
Triticum aestivum, TRZAS wheat, spring (crop), 17.5 g ai/ha, read-out: Visual Growth Reduction (%) 21 Days After Application TRZAS
  pest or weed control at 17.5 g/ha: 75 to 84%
[17]
  pest or weed control at 35 g/ha: 85 to 94%
[18]
  pest or weed control at 70 g/ha: 85 to 94%
VERPE bird's-eye speedwell (veronica persica), 17.5 g ai/ha
  Visual Growth Reduction (%) 21 Days After Application VERPE: E (45-59)
VERPE bird's-eye speedwell (veronica persica), 35 g ai/ha
  Visual Growth Reduction (%) 21 Days After Application VERPE: D (60-74)
VERPE bird's-eye speedwell (veronica persica), 70 g ai/ha
  Visual Growth Reduction (%) 21 Days After Application VERPE: B (85-94)
VERPE bird's-eye speedwell (veronica persica), growth reduction of 50%, probit analysis
  GR50 VERPE: 17 g ai/ha
VERPE bird's-eye speedwell (veronica persica), growth reduction of 80%, probit analysis
  GR80 VERPE: 41 g ai/ha
VERPE bird's-eye speedwell (veronica persica), growth reduction of 90%, probit analysis
  GR90 VERPE: 65 g ai/ha
ALOMY black-grass (Alopecurus myosuroides), 17.5 g ai/ha, read-out: Visual Growth Reduction (%) 21 Days After Application ALOMY
  pest or weed control at 17.5 g/ha: 30 to 44%
[19]
  pest or weed control at 35 g/ha: 45 to 59%
[20]
  pest or weed control at 70 g/ha: 60 to 74%
APESV bentgrass (Apera spica-venti), 17.5 g ai/ha, read-out: Visual Growth Reduction (%) 21 Days After Application APESV
  pest or weed control at 17.5 g/ha: 30 to 44%
[21]
  pest or weed control at 35 g/ha: 60 to 74%
[22]
  pest or weed control at 70 g/ha: 85 to 94%
LOLSS ryegrass, 17.5 g ai/ha, read-out: Visual Growth Reduction (%) 21 Days After Application LOLSS
  pest or weed control at 17.5 g/ha: 45 to 59%
[23]
  pest or weed control at 35 g/ha: 60 to 74%
[24]
  pest or weed control at 70 g/ha: 75 to 84%
SETVI green foxtail (Setaria viridis), 17.5 g ai/ha, read-out: Visual Growth Reduction (%) 21 Days After Application SETVI
  pest or weed control at 17.5 g/ha: 45 to 59%
[25]
  pest or weed control at 35 g/ha: 75 to 84%
[26]
  pest or weed control at 70 g/ha: 85 to 94%
